We go through one molecule from ChEMBL document CHEMBL5614418, “Discovery of novel dihydropyrrolidone-thiadiazole compound crosstalk between the YycG/F two-component regulatory pathway and cell membrane homeostasis to combat methicillin-resistant Staphylococcus aureus” (Eur J Med Chem, 2024).

One experiment relates to Enterococcus faecium. The experiment is described as follows: Antibacterial activity against Enterococcus faecium EFM64 by broth microdilution method. Format: functional. For orientation: Broth dilution looks for growth in wells or tubes with falling amounts of substance.
The subject of another experiment is Enterococcus faecalis. The experiment is described as follows: Antibacterial activity against Enterococcus faecalis OG1RF by broth microdilution method. The class given is functional.
Experiment [1] concerns Staphylococcus epidermidis. Put plainly: Antibacterial activity against methicillin resistant Staphylococcus epidermidis SE1457 infected in BALB/c mouse wound model assessed as log reduction in wound bacterial load at 10 mg/kg, ip administered every 12 hrs for 3 times and measured after 48 hrs. Format: functional.
Experiment [2] concerns Staphylococcus epidermidis. Put plainly: Bactericidal activity against Staphylococcus epidermidis SE1457 assessed as planktonic cells killing by measuring log reduction in bacterial count at 8 times MIC measured after 24 hrs. Format: functional, organism-based.
The subject of experiment [3] is Staphylococcus aureus. The experiment is described as follows: Antibacterial activity against methicillin resistant Staphylococcus aureus USA300 by broth microdilution method. The class given is functional.
Experiment [4] deals with Staphylococcus aureus. Put plainly: Bactericidal activity against Staphylococcus aureus USA300 assessed as planktonic cells killing by measuring log reduction in bacterial count at 8 times MIC measured after 24 hrs. The class given is functional, organism-based.
The test system of experiment [5] is Staphylococcus aureus. Put plainly: Induction of matured biofilm eradication in methicillin resistant Staphylococcus aureus YUSA145 assessed as reduction in bacterial survival in biofilm at 8 times MIC incubated for 48 hrs by SYTO 9 staining based confocal fluorescence microscopic analysis. The class given is functional.
Experiment [6] has as its system Staphylococcus aureus. The experiment is described as follows: Antibacterial activity against methicillin sensitive Staphylococcus aureus SA113 by broth microdilution method. Format: functional.
Experiment [7] deals with Staphylococcus aureus. Put plainly: Antibacterial activity against methicillin resistant Staphylococcus aureus USA300 infected in BALB/c mouse wound model assessed as log reduction in wound bacterial load at 10 mg/kg, ip administered every 12 hrs for 3 times and measured after 48 hrs. The class given is functional.
In experiment [8] the test system is Staphylococcus epidermidis. Put plainly: Antibacterial activity against Staphylococcus epidermidis SE1457 by broth microdilution method. The class given is functional.
Experiment [9] concerns Staphylococcus epidermidis. The experiment is described as follows: Induction of matured biofilm eradication in Staphylococcus epidermidis SE1457 assessed as reduction in bacterial survival in biofilm at 8 times MIC incubated for 48 hrs by SYTO 9 staining based confocal fluorescence microscopic analysis. Format: functional.

SMILES strings stand for the structures. Values after ≈ are worked out from the molar mass of the structure shown. Active and inactive are the calls of the source. No cut-off for these calls is given here.

For `CCCCCCCCCC(=O)N[C@@H](Cc1c[nH]c2ccccc12)C(=O)N[C@H](CC(N)=O)C(=O)N[C@@H](CC(=O)O)C(=O)N[C@@H]1C(=O)NCC(=O)N[C@@H](CCCN)C(=O)N[C@@H](CC(=O)O)C(=O)N[C@H](C)C(=O)N[C@@H](CC(=O)O)C(=O)NCC(=O)N[C@H](CO)C(=O)N[C@@H]([C@H](C)CC(=O)O)C(=O)N[C@@H](CC(=O)c2ccccc2N)C(=O)O[C@@H]1C`, the MIC against Enterococcus faecium is 2 µM (≈ 3.24 µg/mL); with Enterococcus faecalis, 2 µM (≈ 3.24 µg/mL); in the experiment on Staphylococcus aureus [3], 2 µg/mL (≈ 1.23 µM); with Staphylococcus aureus [6], 2 µM (≈ 3.24 µg/mL); in experiment [8] it was 2 µM (≈ 3.24 µg/mL). Moreover, the “log(activity)” value (in [1]; with Staphylococcus aureus [7]) was 1 in each case. Moreover, the result (in experiment [2]; in the experiment with Staphylococcus aureus [4]) was inactive. In addition, the Activity (with Staphylococcus aureus [5]; in experiment [9]) was less than 50% each time.

A word on the MIC: it is the lowest concentration that inhibits growth of the organism.
